In PMC7917901 (Marine Drugs, 2021):
Entries after “also recorded” stand apart in the source; their conditions may differ. Positions of bridges follow the written chain, without caps; N, C: chain ends. Residues, ends and D or L forms follow the SMILES beside them.

Experiments:
[1] = test system: surgery-induced mechanical allodynia; parameters: species or system mice (C57BL/6J); details: mouse, in vivo
[2] = test system: surgery-induced thermal allodynia; parameters: species or system mice (C57BL/6J); details: mouse, in vivo
[3] = test system: oxaliplatin-induced mechanical allodynia; parameters: species or system mice (C57BL/6J); details: mouse, in vivo
[4] = test system: oxaliplatin-induced mechanical allodynia; parameters: species or system mice (C57BL/6J); details: mouse, in vivo; remark: listed apart in the source
[5] = test system: cisplatin-induced mechanical allodynia; parameters: species or system mice (C57BL/6J); details: mouse, in vivo
[6] = test system: naïve C57BL6/J mice; details: mouse, in vivo
[7] = test system: naïve C57BL6/J mice; details: mouse, in vivo; remark: listed apart in the source
[8] = test system: naïve C57BL6/J mice; details: mouse, in vivo; remark: listed apart in the source
[9] = test system: CaV channel; details: cited from earlier work
[10] = test system: mouse inflammatory pain; details: in vivo, sc; cited from earlier work
[11] = in vivo; cited from earlier work
[12] = in vivo, cited from earlier work
[13] = target: T1, endogenous CaV2.2 channels, expressed in the SH-SY5Y cells (Homo sapiens, UniProt Q00975); experiment: cell-based
T1 construct: endogenous CaV2.2 channels, expressed in the SH-SY5Y cells; endogenous in cells; host or cells: SH-SY5Y human neuroblastoma cells
T1 sequence (Q00975 whole entry, looked up): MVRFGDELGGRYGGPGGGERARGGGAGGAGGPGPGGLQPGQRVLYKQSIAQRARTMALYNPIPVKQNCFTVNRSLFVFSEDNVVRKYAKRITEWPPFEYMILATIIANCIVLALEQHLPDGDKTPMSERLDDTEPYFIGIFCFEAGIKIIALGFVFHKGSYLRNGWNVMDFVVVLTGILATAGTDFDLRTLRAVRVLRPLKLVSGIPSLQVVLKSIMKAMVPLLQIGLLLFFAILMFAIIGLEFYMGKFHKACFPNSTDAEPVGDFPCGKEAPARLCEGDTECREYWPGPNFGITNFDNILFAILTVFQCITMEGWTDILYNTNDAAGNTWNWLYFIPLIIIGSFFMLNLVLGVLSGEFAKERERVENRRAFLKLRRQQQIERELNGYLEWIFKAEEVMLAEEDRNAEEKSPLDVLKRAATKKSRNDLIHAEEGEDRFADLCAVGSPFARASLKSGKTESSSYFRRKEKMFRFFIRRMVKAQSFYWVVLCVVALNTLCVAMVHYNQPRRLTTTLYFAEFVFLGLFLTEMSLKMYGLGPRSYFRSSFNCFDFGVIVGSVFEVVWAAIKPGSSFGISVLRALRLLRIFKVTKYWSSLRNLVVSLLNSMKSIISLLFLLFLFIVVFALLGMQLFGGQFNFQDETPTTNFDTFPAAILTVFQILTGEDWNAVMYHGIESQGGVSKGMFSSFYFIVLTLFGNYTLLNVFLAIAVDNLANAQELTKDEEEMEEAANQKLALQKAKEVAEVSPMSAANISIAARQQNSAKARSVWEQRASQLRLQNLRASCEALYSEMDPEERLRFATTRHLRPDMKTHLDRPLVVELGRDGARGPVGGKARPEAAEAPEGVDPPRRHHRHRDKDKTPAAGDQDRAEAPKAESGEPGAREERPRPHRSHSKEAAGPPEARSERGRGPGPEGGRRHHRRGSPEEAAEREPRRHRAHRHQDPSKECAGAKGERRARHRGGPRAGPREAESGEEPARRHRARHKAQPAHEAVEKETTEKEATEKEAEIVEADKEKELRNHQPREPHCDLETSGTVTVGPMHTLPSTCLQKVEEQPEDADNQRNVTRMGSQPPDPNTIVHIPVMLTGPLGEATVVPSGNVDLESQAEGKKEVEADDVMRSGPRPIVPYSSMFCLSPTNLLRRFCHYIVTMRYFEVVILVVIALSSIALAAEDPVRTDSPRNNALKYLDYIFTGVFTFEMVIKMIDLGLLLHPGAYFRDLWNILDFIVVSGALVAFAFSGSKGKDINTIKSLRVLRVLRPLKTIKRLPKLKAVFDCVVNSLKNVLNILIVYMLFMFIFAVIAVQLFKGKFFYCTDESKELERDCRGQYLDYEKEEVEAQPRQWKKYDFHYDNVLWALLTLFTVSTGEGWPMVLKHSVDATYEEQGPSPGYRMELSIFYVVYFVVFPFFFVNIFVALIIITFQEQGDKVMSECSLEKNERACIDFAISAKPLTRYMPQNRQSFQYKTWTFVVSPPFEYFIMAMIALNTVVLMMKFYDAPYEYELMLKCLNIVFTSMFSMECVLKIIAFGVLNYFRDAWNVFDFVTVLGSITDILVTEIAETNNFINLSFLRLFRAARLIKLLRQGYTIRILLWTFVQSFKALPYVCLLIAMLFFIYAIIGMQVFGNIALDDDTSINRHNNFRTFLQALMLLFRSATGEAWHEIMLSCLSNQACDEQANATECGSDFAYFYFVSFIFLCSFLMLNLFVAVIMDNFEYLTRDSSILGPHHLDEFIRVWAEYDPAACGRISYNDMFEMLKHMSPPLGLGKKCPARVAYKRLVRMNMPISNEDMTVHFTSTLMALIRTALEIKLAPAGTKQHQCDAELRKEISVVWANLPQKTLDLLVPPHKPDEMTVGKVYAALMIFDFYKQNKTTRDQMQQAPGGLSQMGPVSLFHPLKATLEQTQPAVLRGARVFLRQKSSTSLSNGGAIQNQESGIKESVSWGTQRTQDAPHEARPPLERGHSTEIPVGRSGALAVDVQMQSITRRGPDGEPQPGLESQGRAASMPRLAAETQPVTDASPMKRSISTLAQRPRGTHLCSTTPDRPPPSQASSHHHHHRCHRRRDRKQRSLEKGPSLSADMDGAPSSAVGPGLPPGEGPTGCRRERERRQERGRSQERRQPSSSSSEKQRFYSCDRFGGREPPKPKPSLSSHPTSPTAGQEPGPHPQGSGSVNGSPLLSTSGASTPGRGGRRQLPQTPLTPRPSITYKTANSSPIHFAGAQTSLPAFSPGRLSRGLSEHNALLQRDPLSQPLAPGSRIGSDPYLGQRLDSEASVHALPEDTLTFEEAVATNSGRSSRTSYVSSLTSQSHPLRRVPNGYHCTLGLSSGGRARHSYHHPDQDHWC

CC(C)C[C@@H]1NC(=O)[C@H](CCCNC(=N)N)NC(=O)[C@@H]2CSSC[C@@H]3NC(=O)[C@H](CO)NC(=O)[C@H](C)NC(=O)CNC(=O)[C@H](CCCCN)NC(=O)CNC(=O)[C@H](CCCCN)NC(=O)[C@@H](N)CSSC[C@H](NC(=O)[C@H](CSSC[C@@H](C(N)=O)NC(=O)[C@H](CCCNC(=N)N)NC(=O)CNC1=O)NC(=O)[C@H](CC(=O)O)NC(=O)[C@H](Cc1ccc(O)cc1)NC(=O)[C@H](CO)NC(=O)[C@H]([C@@H](C)O)NC(=O)[C@H](CCCNC(=N)N)NC(=O)[C@H](CCCNC(=N)N)NC3=O)C(=O)N[C@@H]([C@@H](C)O)C(=O)NCC(=O)N[C@@H](CO)C(=O)N2 [CVIF] (H-CKGKGASCRRTSYDCCTGSCRLGRC-NH2; disulfide 1-16, 8-20, 15-25)
Effect on PSP mechanical allodynia, 6.0 pmol/paw [1]: remained unchanged; also recorded: did not produce any significant antiallodynic effect | Mechanical PWT, PSP, 6.0 pmol/paw [1]: 1.4 ± 0.1 g | Effect on PSP thermal allodynia [2]: did not reverse thermal allodynia | Thermal PWT, PSP, 2.0 pmol/paw [2]: 48.9 ± 0.4 °C | Activity across the pain models [3]: inactive in these pain models; also recorded: not found effective in any of the peripheral pain models | Effect on OIPN mechanical PWT, 6 pmol/paw [3]: did not significantly change PWTs; also recorded: did not elicit significant antiallodynic effect | Mechanical PWT, OIPN, 2.0 pmol/paw [3]: 1.9 ± 0.2 g | Mechanical PWT, OIPN, 6.0 pmol/paw [3]: 1.7 ± 0.1 g | Effect of contralateral administration on OIPN mechanical PWT [4]: did not significantly change mechanical PWTs; also recorded: did not reverse mechanical allodynia | Mechanical PWT, OIPN, contralateral administration [4]: 1.6 ± 0.4 g | Effect on CisIPN mechanical PWT [5]: did not significantly change the PWTs; also recorded: did not produce any significant antiallodynic effect | Mechanical PWT, CisIPN, 2 pmol/paw [5]: 2.0 ± 0.3 g | Effect on basal mechanical PWT [6]: did not significantly change mechanical and thermal PWTs | Mechanical PWT [6]: 3.1 ± 0.2 g | Effect on basal thermal PWT [7]: did not significantly change mechanical and thermal PWTs | Thermal PWT [7]: 50.8 ± 0.8 °C | Ataxia index [8]: 7.3 ± 1.8 | Ataxia index (paw slips/distance covered) [8]: 7.3 ± 1.8 m | Distance covered [8]: 1.7 ± 0.4 m | Number of paw slips [8]: 10.5 ± 1.5 | Number of paw slips (printed with unit g) [8]: 10.5 ± 1.5 g | State dependence of affinity [9]: higher affinity for channels in the inactivated state | Effect on inflammatory pain [10]: partially reversed the incapacitance of mouse inflammatory pain | Side effects after subcutaneous administration [10]: did not cause side effects | Safety profile [11]: better safety profile in preclinical studies

CSCC[C@@H]1NC(=O)[C@H](CC(C)C)NC(=O)[C@H](CCCNC(=N)N)NC(=O)[C@H](CO)NC(=O)[C@@H]2CSSC[C@@H]3NC(=O)[C@H](CO)NC(=O)CNC(=O)[C@H]([C@@H](C)O)NC(=O)[C@H](CSSC[C@H](N)C(=O)N[C@@H](CCCCN)C(=O)NCC(=O)N[C@@H](CCCCN)C(=O)NCC(=O)N[C@@H](C)C(=O)N[C@@H](CCCCN)C(=O)N2)NC(=O)[C@H](CSSC[C@@H](C(N)=O)NC(=O)[C@H](CCCCN)NC(=O)CNC(=O)[C@H](CO)NC(=O)[C@H](CCCNC(=N)N)NC3=O)NC(=O)[C@H](CC(=O)O)NC(=O)[C@H](Cc2ccc(O)cc2)NC1=O [MVIIA]
Effect on basal mechanical PWT [6]: did not significantly change mechanical and thermal PWTs | Effect on basal thermal PWT [7]: did not significantly change mechanical and thermal PWTs | Ataxia index [8]: 6.7 ± 1.6 | Ataxia index (paw slips/distance covered) [8]: 6.7 ± 1.6 m | Distance covered [8]: 1.8 ± 0.3 m | Number of paw slips [8]: 11.0 ± 1.8 | Number of paw slips (printed with unit g) [8]: 11.0 ± 1.8 g | Oral bioavailability and CNS access ([12]; po): Poor oral bioavailability and CNS access | Plasma half-life [12]: short plasma half-life

C[C@@H](O)[C@@H]1NC(=O)[C@H](Cc2ccc(O)cc2)NC(=O)[C@@H]2C[C@@H](O)CN2C(=O)[C@H](CC(N)=O)NC(=O)[C@@H]2CSSC[C@@H]3NC(=O)[C@H](CO)NC(=O)[C@H](CO)NC(=O)CNC(=O)[C@@H]4C[C@@H](O)CN4C(=O)[C@H](CO)NC(=O)[C@H](CCCCN)NC(=O)[C@@H](N)CSSC[C@H](NC(=O)[C@H](CSSC[C@@H](C(=O)N[C@@H](Cc4ccc(O)cc4)C(N)=O)NC(=O)[C@H](CCCN=C(N)N)NC(=O)[C@H](CCCCN)NC1=O)NC(=O)[C@H](CC(N)=O)NC(=O)[C@H](Cc1ccc(O)cc1)NC(=O)[C@H](CO)NC(=O)[C@H]([C@@H](C)O)NC(=O)[C@@H]1C[C@@H](O)CN1C(=O)[C@H](CO)NC3=O)C(=O)N[C@@H](CCCN=C(N)N)C(=O)N[C@@H](CO)C(=O)N2 [GVIA]
IC50 [13]: 11.2 ± 3.3 nM | Effect on basal mechanical PWT [6]: did not significantly change mechanical and thermal PWTs | Effect on basal thermal PWT [7]: did not significantly change mechanical and thermal PWTs | Ataxia index [8]: 6.9 ± 1.7 | Ataxia index (paw slips/distance covered) [8]: 6.9 ± 1.7 m | Distance covered [8]: 1.7 ± 0.2 m | Number of paw slips [8]: 11.3 ± 2.8
